Data on 26 molecules can be found in US5189169A (priority 1991, dated 1993).

What all share (details): 2.24 kg/ha, 2-3 weeks after treatment
Test [1] relates to four grassy weeds: wild oat, watergrass, green foxtail and crabgrass. The experiment in a line: Post-emergence herbicidal activity, grassy weeds (Table III). Format: in vivo. How it is done:
(§1) The herbicidal effect was observed by comparing the extent of weed control in test flats treated with the compounds against that occurring in similar non-treated control flats. All were applied at 3.57 lb/A (4 kg/ha) to pre-emergence and post-emergence screening flats. An 80 gal/A (748.3 1/ha) spray volume was utilized. Post-emergence flats were seeded 12 days prior to treatment. Pre-emergence flats were seeded one day prior to treatment. Overhead watering of pre-emergence flats and soil surface watering of post-emergence flats, so as to avoid wetting the foliage, were carried out for the duration of the test.
(§2) Weed seeds were planted in a flat at a seed depth of 0.5 inch (1.3 cm). Soil for flats was prepared using loam soil fortified with 17-17-17 fertilizer (N-P2 O5 -K2 O on a weight basis) and Captan 80W fungicide. The test weeds were as follows:
(§3) The spray solutions were prepared by dissolving 240 mg of test compound in 20 ml of acetone containing 1% polyoxyethylene sorbitan monolaurate emulsifier, then adding 20 ml of water to the resulting solution. The spray solutions were applied using a linear spray table. Pre-emergence flats are raised to the level of the post-emergence foliage canopy by setting the flats on a wooden block.
(§4) The degree of weed control was visually assessed and recorded as percentage control compared to the growth of the same species in an untreated check flat of the same age. The rating scale ranges from 0 to 100%, where 0 equals no effect with plant growth equal to the untreated control, and 100 equals complete kill.
(§5) Compounds 68 to 145 in Table I were tested generally similarly to Compounds No. 1 to 67 with the following differences: The rate of application was 2 lb/acre (2.24 kg/ha), no 6-day evaluations were made, and the weeds were:
(§6) Four grassy weeds: wild oat, watergrass, green foxtail and crabgrass (Digitaria sanguinalis);
(§7) Ratings were taken 2-3 weeks after treatment.

Test [2] shares this test system. Description: Pre-emergence herbicidal activity, grassy weeds (Table III). Format: in vivo. How it is done:
as §1, §2, §3, §4, §5, §6, §7

The test system of test [3] is three broadleaf weeds: wild mustard, redroot pigweed and curly dock. The experiment in a line: Pre-emergence herbicidal activity, broadleaf weeds (Table III). Format: in vivo, Brassica kaber, Amaranthus retroflexus, Rumex crispus. The method, then:
as §1, §2, §3, §4, §5
(§8) Three broadleaf weeds: wild mustard, redroot pigweed (Amaranthus retroflexus) and curly dock (Rumex crispus).
as §7

Test [4] has the same test system. The experiment in a line: Post-emergence herbicidal activity, broadleaf weeds (Table III). The class given is in vivo, Brassica kaber, Amaranthus retroflexus, Rumex crispus. The method, then: as §1, §2, §3, §4, §5, §8, §7

Regarding `CCCN(CCC)P(=O)(SCC)N1CC(CC)CCC1C` (centres unmarked) [Compound 96], in test [1], the “% Control, Post-Emergence, GR Avg.” value stood at 65%. In addition, the “% Control, Pre-Emergence, GR Avg.” value in test [2] was 0%. The “% Control, Pre-Emergence, BL Avg.” value in test [3] is listed as 10%. Besides, in test [4], the “% Control, Post-Emergence, BL Avg.” value worked out at 67%.
Consider `CCCCN(CCCC)P(=O)(SC(C)C)N(CCC)CCC` (centres unmarked) [Compound 125], for which the “% Control, Post-Emergence, GR Avg.” value in test [1] amounted to 59%. For the same molecule, the “% Control, Pre-Emergence, GR Avg.” value in test [2] came out at 0%. Besides, in test [3], the “% Control, Pre-Emergence, BL Avg.” value was 0%. The “% Control, Post-Emergence, BL Avg.” value in test [4] stood at 70%.
On to `CCCSP(=O)(N(CCC)CCC)N(CCC)CCC` [Compound 71], for which the “% Control, Post-Emergence, GR Avg.” value in test [1] is 64%. Further, the “% Control, Pre-Emergence, GR Avg.” value in test [2] is 27%. Besides, the “% Control, Pre-Emergence, BL Avg.” value in test [3] stood at 57%. For the same molecule, the “% Control, Post-Emergence, BL Avg.” value in test [4] is on record as 99%.
The corresponding values for `CCCN(CCC)P(=O)(SC1CCCCC1)N(CCC)CCC` [Compound 118] are 30%, 0%, 0% and 63%.
Take `CCCN(CCC)P(=O)(SC(C)C)N1CC(CC)CCC1C` (centres unmarked) [Compound 97]: the “% Control, Post-Emergence, GR Avg.” value in test [1] stood at 67%. Besides, the “% Control, Pre-Emergence, GR Avg.” value in test [2] came out at 0%. The “% Control, Pre-Emergence, BL Avg.” value in test [3] is reported as 20%. For the same molecule, the “% Control, Post-Emergence, BL Avg.” value in test [4] is 86%.
The matching figures for `CCCCSP(=O)(N(CC)CC)N(CC)CC` [Compound 69]: 30%, 13%, 0% and 87%.
The corresponding values for `CCCCCCSP(=O)(N(CC)CCCC)N(CCC)CCC` (centres unmarked) [Compound 135] are 54%, 0%, 10% and 96%.
The matching figures for `C=CCSP(=O)(N(CCC)CCC)N(CCCC)CCCC` (centres unmarked) [Compound 129]: 69%, 0%, 0% and 86%.
With `CCCCN(CCCC)P(=O)(SC1CCCCC1)N(C)C` (centres unmarked) [Compound 117], the “% Control, Post-Emergence, GR Avg.” value in test [1] is reported as 50%. In addition, the “% Control, Pre-Emergence, GR Avg.” value in test [2] worked out at 0%. For the same molecule, in test [3], the “% Control, Pre-Emergence, BL Avg.” value was determined as 0%. The “% Control, Post-Emergence, BL Avg.” value in test [4] amounted to 77%.
As to `CCCCN(CCCC)P(=O)(SCCC)N(CCC)CCC` (centres unmarked) [Compound 124], in test [1], the “% Control, Post-Emergence, GR Avg.” value was 67%. Also, in test [2], the “% Control, Pre-Emergence, GR Avg.” value is listed as 0%. The “% Control, Pre-Emergence, BL Avg.” value in test [3] stood at 0%. The “% Control, Post-Emergence, BL Avg.” value in test [4] is recorded as 79%.
With `C=CCN(CC=C)P(=O)(SCC)N(CCC)CCC` (centres unmarked) [Compound 75], the “% Control, Post-Emergence, GR Avg.” value in test [1] turned out to be 62%. The “% Control, Pre-Emergence, GR Avg.” value in test [2] is on record as 0%. Further, the “% Control, Pre-Emergence, BL Avg.” value in test [3] worked out at 0%. In test [4], the “% Control, Post-Emergence, BL Avg.” value is 98%.
As for `CCCCN(CC)P(=O)(SC(C)CC)N(CCC)CCC` (centres unmarked) [Compound 114], the “% Control, Post-Emergence, GR Avg.” value in test [1] is reported as 56%. Besides, in test [2], the “% Control, Pre-Emergence, GR Avg.” value is 0%. For the same molecule, in test [3], the “% Control, Pre-Emergence, BL Avg.” value came out at 0%. For the same molecule, the “% Control, Post-Emergence, BL Avg.” value in test [4] came out at 93%.
`CCCN(CCC)P(=O)(SC(C)CC)N1CC(CC)CCC1C` (centres unmarked) [Compound 98]: the “% Control, Post-Emergence, GR Avg.” value in test [1] was 61%. For the same molecule, the “% Control, Pre-Emergence, GR Avg.” value in test [2] is on record as 0%. In test [3], the “% Control, Pre-Emergence, BL Avg.” value was determined as 33%. Besides, in test [4], the “% Control, Post-Emergence, BL Avg.” value was found to be 90%.
The corresponding values for `CCCCCCSP(=O)(N(CCC)CCC)N(CCC)CCC` [Compound 116] are 53%, 0%, 10% and 96%.
The matching figures for `CCCCN(CCCC)P(=O)(SC(C)C)N(C)C` (centres unmarked) [Compound 109]: 85%, 23%, 20% and 98%.
The matching figures for `CCCCN(CC)P(=O)(SCC)N(CCC)CCC` (centres unmarked) [Compound 88]: 89%, 0%, 0% and 96%.
Regarding `CCCCSP(=O)(N(CC)CC)N(CCCC)CCCC` (centres unmarked) [Compound 86], in test [1], the “% Control, Post-Emergence, GR Avg.” value is on record as 77%. For the same molecule, the “% Control, Pre-Emergence, GR Avg.” value in test [2] was determined as 5%. In test [3], the “% Control, Pre-Emergence, BL Avg.” value was 7%. Also, the “% Control, Post-Emergence, BL Avg.” value in test [4] is 99%.
Take `CCCCN(CCCC)P(=O)(SC(C)(C)C)N(CCC)CCC` (centres unmarked) [Compound 128]: the “% Control, Post-Emergence, GR Avg.” value in test [1] is 38%. For the same molecule, the “% Control, Pre-Emergence, GR Avg.” value in test [2] worked out at 0%. In test [3], the “% Control, Pre-Emergence, BL Avg.” value is reported as 0%. In test [4], the “% Control, Post-Emergence, BL Avg.” value amounted to 80%.
`CCCN(CCC)P(=O)(SCC)N(C)c1ccccc1` (centres unmarked) [Compound 119]: in test [1], the “% Control, Post-Emergence, GR Avg.” value worked out at 30%. Also, the “% Control, Pre-Emergence, GR Avg.” value in test [2] came out at 0%. In test [3], the “% Control, Pre-Emergence, BL Avg.” value came to 0%. The “% Control, Post-Emergence, BL Avg.” value in test [4] was 67%.
In the case of `CCCSP(=O)(N(CC)CC)N(CCC)CCC` (centres unmarked) [Compound 145], the “% Control, Post-Emergence, GR Avg.” value in test [1] is on record as 60%. Moreover, the “% Control, Pre-Emergence, GR Avg.” value in test [2] turned out to be 0%. Also, in test [3], the “% Control, Pre-Emergence, BL Avg.” value is given as 30%. The “% Control, Post-Emergence, BL Avg.” value in test [4] was 87%.
The corresponding values for `C=CCSP(=O)(N(CC)CCCC)N(CCC)CCC` (centres unmarked) [Compound 115] are 70%, 0%, 0% and 86%.
The matching figures for `CCCCN(CCCC)P(=O)(SC(C)C)N(CC)CC` (centres unmarked) [Compound 87]: 62%, 5%, 12% and 99%.
Turning to `CCCCCSP(=O)(N(CCCC)CCCC)N(CCCC)CCCC` [Compound 132], the “% Control, Post-Emergence, GR Avg.” value in test [1] amounted to 40%. For the same molecule, the “% Control, Pre-Emergence, GR Avg.” value in test [2] is given as 8%. Besides, the “% Control, Pre-Emergence, BL Avg.” value in test [3] is listed as 20%. Further, the “% Control, Post-Emergence, BL Avg.” value in test [4] was 67%.
The corresponding values for `C=CCN(CC=C)P(=O)(SCCCC)N(CCC)CCC` (centres unmarked) [Compound 77] are 53%, 0%, 0% and 99%.
The corresponding values for `CCCCN(CCCC)P(=O)(SCC)N(CC)CC` (centres unmarked) [Compound 84] are 75%, 5%, 13% and 99%.
The corresponding values for `CCCCSP(=O)(N(CC)CCCC)N(CCC)CCC` (centres unmarked) [Compound 90] are 86%, 0%, 7% and 100%.
